The source of these data is patent US9085576B2 (AMGEN INC., priority 2013, dated 2015).

The target of one assay is BACE (Homo sapiens (Human), UniProt P56817). Briefly: In vitro BACE cell-based assay (Aβ40 in conditioned medium, sandwich ELISA).
For assay [1], the target named is Beta Secretase enzyme (BACE) (Homo sapiens (Human), UniProt P56817). The assay is described as follows: In vitro enzymatic BACE FRET assay. The assay is classed as biochemical. The following applies: read-out: BACE1 Enzyme assay IC50.
Sequence of Beta Secretase enzyme (BACE) (P56817 46-501): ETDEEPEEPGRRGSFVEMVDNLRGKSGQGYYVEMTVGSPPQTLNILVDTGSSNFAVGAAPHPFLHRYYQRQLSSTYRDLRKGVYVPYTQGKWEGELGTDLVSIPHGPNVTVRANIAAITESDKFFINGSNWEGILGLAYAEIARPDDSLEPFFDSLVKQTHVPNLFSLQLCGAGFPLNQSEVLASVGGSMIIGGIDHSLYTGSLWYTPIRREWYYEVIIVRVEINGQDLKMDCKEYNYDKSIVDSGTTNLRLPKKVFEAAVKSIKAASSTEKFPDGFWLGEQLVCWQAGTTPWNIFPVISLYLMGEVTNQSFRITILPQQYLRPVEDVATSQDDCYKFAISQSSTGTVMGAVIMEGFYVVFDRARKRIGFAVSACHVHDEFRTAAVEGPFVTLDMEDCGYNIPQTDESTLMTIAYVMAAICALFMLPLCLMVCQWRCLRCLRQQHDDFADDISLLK
Method: In Vitro Enzymatic BACE FRET (Fluorescence Resonance Energy Transfer) Assay (Enzyme Assay Data in the Example Table I)
The assay buffer used in this screen is 0.05 M acetate, pH 4.2, 10% DMSO final, 100 uM genapol (which is a nonionic detergent, below its Critical Micelle Concentration). […] This assay is effectively started by the addition of FRET substrate (50 nM) and the combination is incubated for one hour. The FRET assay is terminated with by addition of Tris buffer, which raises the pH to neutrality, and the fluorescence is determined. The FRET substrate is a peptide with commercially available fluorophore and quencher, on opposite sides of the BACE cleavage site.
The target of another assay is Cathepsin D (Cat D) (Homo sapiens (Human), UniProt P07339). The assay is described as follows: In vitro enzymatic Cathepsin D (Cat D) FRET assay. The format is biochemical. Conditions: read-out: CatD IC50.
Sequence of Cathepsin D (Cat D) (P07339 65-412, species assumed): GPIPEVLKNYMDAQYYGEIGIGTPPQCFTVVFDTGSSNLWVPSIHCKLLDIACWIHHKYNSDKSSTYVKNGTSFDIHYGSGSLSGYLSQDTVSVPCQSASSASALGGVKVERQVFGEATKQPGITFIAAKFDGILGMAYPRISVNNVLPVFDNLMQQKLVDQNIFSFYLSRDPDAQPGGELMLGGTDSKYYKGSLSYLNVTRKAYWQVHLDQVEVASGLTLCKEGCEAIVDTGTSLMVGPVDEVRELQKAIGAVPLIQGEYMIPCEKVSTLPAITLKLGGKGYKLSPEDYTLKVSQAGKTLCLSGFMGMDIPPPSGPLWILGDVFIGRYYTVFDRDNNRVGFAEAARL

Each structure is given as a SMILES string. Some results are limits rather than exact numbers.

Sequence of BACE (P56817 46-501, species assumed): as the sequence (P56817 46-501) above

The IC50 is the midpoint of a concentration-inhibition curve. For the molecule `Cc1nc(OCC(F)(F)F)cnc1C(=O)Nc1cc(F)c(Cl)c([C@@]2(CF)N=C(N)O[C@@H]3C[C@@H]32)c1` [Example 315, N-(3-((1R,5S,6R)-3-amino-5-(fluoromethyl)-2-oxa-4-azabicyclo[4.1.0]hept-3-en-5-yl)-4-chloro-5-fluorophenyl)-3-methyl-5-(2,2,2-trifluoroethoxy)pyrazine-2-carboxamide], the IC50 on BACE was 0.0927 µM; in assay [1], 0.0936 µM; on Cathepsin D (Cat D), 556 µM.

As to `Cc1nc(OCC(F)(F)F)cnc1C(=O)Nc1cc(F)c(Cl)c([C@]2(CF)N=C(N)O[C@H]3C[C@H]32)c1` [Example 316, N-(3-((1S,5R,6S)-3-amino-5-(fluoromethyl)-2-oxa-4-azabicyclo[4.1.0]hept-3-en-5-yl)-4-chloro-5-fluorophenyl)-3-methyl-5-(2,2,2-trifluoroethoxy)pyrazine-2-carboxamide], the values for the half-maximal inhibitory concentration (IC50) (against BACE; in assay [1]; on Cathepsin D (Cat D)) were more than 15.6 µM, more than 40 µM and 1080 µM, respectively.

As to `C#CCOc1cnc(C(=O)Nc2cc(F)c(Cl)c([C@@]3(CF)N=C(N)O[C@@H]4C[C@@H]43)c2)cn1` [Example 317, N-(3-((1R,5S,6R)-3-amino-5-(fluoromethyl)-2-oxa-4-azabicyclo[4.1.0]hept-3-en-5-yl)-4-chloro-5-fluorophenyl)-5-(prop-2-yn-1-yloxy)pyrazine-2-carboxamide], the IC50 on BACE amounted to 0.0014 µM; in assay [1], 0.0028 µM; on Cathepsin D (Cat D), 41 µM.

Regarding `C#CCOc1cnc(C(=O)Nc2cc(F)c(Cl)c([C@]3(CF)N=C(N)O[C@H]4C[C@H]43)c2)cn1` [Example 318], the figures for the IC50 (at BACE; in assay [1]; on Cathepsin D (Cat D)) were 1.49 µM, 4.07 µM and 370 µM, respectively.

For the molecule `COc1cnc(C(=O)Nc2ccc(F)c([C@]3(C)N=C(N)O[C@H]4C[C@H]43)n2)cn1` [Example 323, N-(6-((1S,5R,6S)-3-amino-5-methyl-2-oxa-4-azabicyclo[4.1.0]hept-3-en-5-yl)-5-fluoropyridin-2-yl)-5-methoxypyrazine-2-carboxamide], the IC50 is more than 15.6 µM at BACE, more than 40 µM in assay [1] and more than 400 µM on Cathepsin D (Cat D).

In the case of `C[C@]1(c2nc(NC(=O)c3ccc(C#N)cn3)ccc2F)N=C(N)O[C@@H]2C[C@@H]21` [Example 324, N-(6-((1R,5S,6R)-3-amino-5-methyl-2-oxa-4-azabicyclo[4.1.0]hept-3-en-5-yl)-5-fluoropyridin-2-yl)-5-cyanopicolinamide], the values for the IC50 (at BACE; in assay [1]; on Cathepsin D (Cat D)) were 0.0283 µM, 0.149 µM and 182 µM, respectively.

For `C[C@]1(c2nc(NC(=O)c3ccc(Cl)cn3)ccc2F)N=C(N)O[C@@H]2C[C@@H]21` [Example 326, N-(6-((1R,5S,6R)-3-amino-5-methyl-2-oxa-4-azabicyclo[4.1.0]hept-3-en-5-yl)-5-fluoropyridin-2-yl)-5-chloropicolinamide], the IC50 on BACE is 0.0323 µM; in assay [1], 0.242 µM; at Cathepsin D (Cat D), 279 µM.

As for `C[C@@]1(c2nc(NC(=O)c3ccc(Cl)cn3)ccc2F)N=C(N)O[C@H]2C[C@H]21` [Example 327, N-(6-((1S,5R,6S)-3-amino-5-methyl-2-oxa-4-azabicyclo[4.1.0]hept-3-en-5-yl)-5-fluoropyridin-2-yl)-5-chloropicolinamide], the IC50 at BACE is 0.703 µM; in assay [1], 2.14 µM; at Cathepsin D (Cat D) it was 1320 µM.

For the molecule `C[C@]1(c2nc(NC(=O)c3ncc(Cl)cc3Cl)ccc2F)N=C(N)O[C@@H]2C[C@@H]21` [Example 328, N-(6-((1R,5S,6R)-3-amino-5-methyl-2-oxa-4-azabicyclo[4.1.0]hept-3-en-5-yl)-5-fluoropyridin-2-yl)-3,5-dichloropicolinamide], the IC50 stood at 0.0116 µM against BACE, 0.103 µM in assay [1] and 512 µM at Cathepsin D (Cat D).

Consider `C[C@@]1(c2nc(NC(=O)c3ncc(Cl)cc3Cl)ccc2F)N=C(N)O[C@H]2C[C@H]21` [Example 329, N-(6-((1S,5R,6S)-3-amino-5-methyl-2-oxa-4-azabicyclo[4.1.0]hept-3-en-5-yl)-5-fluoropyridin-2-yl)-3,5-dichloropicolinamide], for which the IC50 against BACE is 9.6 µM; in assay [1], more than 40 µM; on Cathepsin D (Cat D), 1610 µM.

Regarding `N#Cc1ccc(C(=O)Nc2ccc(F)c([C@@]3(C(F)F)N=C(N)O[C@@H]4C[C@@H]43)n2)nc1` [Example 331, N-(6-((1R,5S,6R)-3-amino-5-(difluoromethyl)-2-oxa-4-azabicyclo[4.1.0]hept-3-en-5-yl)-5-fluoropyridin-2-yl)-5-cyanopicolinamide], the IC50 on BACE is more than 15.6 µM; in assay [1], 26.7 µM; on Cathepsin D (Cat D) it was 1510 µM.

Turning to `C[C@]1(c2cc(NC(=O)c3ccc(Cl)cn3)cnc2F)N=C(N)O[C@@H]2C[C@@H]21` [Example 334, N-(5-((1R,5S,6R)-3-amino-5-methyl-2-oxa-4-azabicyclo[4.1.0]hept-3-en-5-yl)-6-fluoropyridin-3-yl)-5-chloropicolinamide], the results for the IC50 (against BACE; in assay [1]; on Cathepsin D (Cat D)) were 0.0089 µM, 0.0944 µM and 402 µM, respectively.

For `COc1cnc(C(=O)Nc2cnc(F)c([C@]3(C)N=C(N)O[C@H]4C[C@H]43)c2)cn1` [Example 336, N-(5-((1(R,S),5(S,R),6(R,S))-3-amino-5-methyl-2-oxa-4-azabicyclo[4.1.0]hept-3-en-5-yl)-6-fluoropyridin-3-yl)-5-methoxypyrazine-2-carboxamide], the IC50 on BACE is 0.0416 µM; in assay [1], 0.435 µM; at Cathepsin D (Cat D), more than 400 µM.

On to `COc1cnc2c(Nc3ccc(F)c([C@@]4(C)N=C(N)O[C@@H]5C[C@@H]54)c3)nccc2c1` [Example 340, (1R,5S,6R)-5-(2-fluoro-5-((3-methoxy-1,7-naphthyridin-8-yl)amino)phenyl)-5-methyl-2-oxa-4-azabicyclo[4.1.0]hept-3-en-3-amine], for which the IC50 was 0.0796 µM on BACE, 0.506 µM in assay [1] and more than 400 µM at Cathepsin D (Cat D).

Take `NC1=N[C@](CF)(c2cc(Nc3nccc4cc(Cl)cnc34)cc(F)c2F)[C@@H]2C[C@@H]2O1` [Example 341, (1S,5S,6S)-5-(5-((3-chloro-1,7-naphthyridin-8-yl)amino)-2,3-difluorophenyl)-5-(fluoromethyl)-2-oxa-4-azabicyclo[4.1.0]hept-3-en-3-amine]: the IC50 was determined as 3.41 µM against BACE, 3.41 µM in assay [1] and 2890 µM on Cathepsin D (Cat D).

For the molecule `NC1=N[C@](CF)(c2cc(Nc3nccc4cc(Cl)cnc34)cc(F)c2F)[C@H]2C[C@H]2O1` [Example 342, (1R,5S,6R)-5-(5-((3-chloro-1,7-naphthyridin-8-yl)amino)-2,3-difluorophenyl)-5-(fluoromethyl)-2-oxa-4-azabicyclo[4.1.0]hept-3-en-3-amine], the IC50 against BACE was found to be 0.12 µM; in assay [1], 0.0598 µM; on Cathepsin D (Cat D), 50.6 µM.

On to `N#Cc1cnc2c(Nc3ccc(F)c([C@@]4(CF)N=C(N)O[C@@H]5C[C@@H]54)c3)ncc(F)c2c1` [Example 343, 8-((3-((1R,5S,6R)-3-amino-5-(fluoromethyl)-2-oxa-4-azabicyclo[4.1.0]hept-3-en-5-yl)-4-fluorophenyl)amino)-5-fluoro-1,7-naphthyridine-3-carbonitrile], for which the IC50 was 0.0546 µM at BACE, 0.0949 µM in assay [1] and more than 44.4 µM on Cathepsin D (Cat D).

As to `COc1cnc2c(Nc3ccc(F)c([C@@]4(CF)N=C(N)O[C@@H]5C[C@@H]54)c3)ncc(F)c2c1` [Example 344, (1R,5S,6R)-5-(2-fluoro-5-((5-fluoro-3-methoxy-1,7-naphthyridin-8-yl)amino)phenyl)-5-(fluoromethyl)-2-oxa-4-azabicyclo[4.1.0]hept-3-en-3-amine], the IC50 is 0.0982 µM on BACE, 430 µM in assay [1] and 596 µM at Cathepsin D (Cat D).

In the case of `NC1=N[C@](CF)(c2cc(Nc3nccc4cc(Cl)cnc34)ccc2F)[C@H]2C[C@H]2O1` [Example 345, (1R,5S,6R)-5-(5-((3-chloro-1,7-naphthyridin-8-yl)amino)-2-fluorophenyl)-5-(fluoromethyl)-2-oxa-4-azabicyclo[4.1.0]hept-3-en-3-amine], the IC50 at BACE is 0.0543 µM; in assay [1], 0.0713 µM; at Cathepsin D (Cat D), 282 µM.

As for `N#Cc1cnc2c(Nc3ccc(F)c([C@@]4(CF)N=C(N)O[C@@H]5C[C@@H]54)c3)nccc2c1` [Example 346, 8-((3-((1R,5S,6R)-3-amino-5-(fluoromethyl)-2-oxa-4-azabicyclo[4.1.0]hept-3-en-5-yl)-4-fluorophenyl)amino)-1,7-naphthyridine-3-carbonitrile], the IC50 against BACE was 0.0176 µM; in assay [1] it was 0.0539 µM; at Cathepsin D (Cat D), 205 µM.

Turning to `NC1=N[C@](CF)(c2cc(Nc3ncnc4cc(Cl)cnc34)ccc2F)[C@H]2C[C@H]2O1` [Example 347, (1R,5S,6R)-5-(5-((7-chloropyrido[3,2-d]pyrimidin-4-yl)amino)-2-fluorophenyl)-5-(fluoromethyl)-2-oxa-4-azabicyclo[4.1.0]hept-3-en-3-amine], the IC50 turned out to be 0.0624 µM at BACE, 0.133 µM in assay [1] and 106 µM on Cathepsin D (Cat D).

With `COc1cnc2c(Nc3ccc(F)c([C@@]4(C(F)F)N=C(N)O[C@@H]5C[C@@H]54)c3)nccc2c1` [Example 348, (1R,5S,6R)-5-(difluoromethyl)-5-(2-fluoro-5-((3-methoxy-1,7-naphthyridin-8-yl)amino)phenyl)-2-oxa-4-azabicyclo[4.1.0]hept-3-en-3-amine], the IC50 on BACE is 0.106 µM; in assay [1], 0.456 µM; on Cathepsin D (Cat D), 738 µM.

Turning to `N#Cc1cnc2c(Nc3ccc(Cl)c([C@@]4(C(F)F)N=C(N)O[C@@H]5C[C@@H]54)c3)ncc(F)c2c1` [Example 350, 8-((3-((1R,5S,6R)-3-amino-5-(difluoromethyl)-2-oxa-4-azabicyclo[4.1.0]hept-3-en-5-yl)-4-chlorophenyl)amino)-5-fluoro-1,7-naphthyridine-3-carbonitrile], the IC50 on BACE is 0.0628 µM; in assay [1] it was 0.0319 µM; at Cathepsin D (Cat D), more than 14.8 µM.
